pIC50: −log10 of the molar value. In brackets after ≈: the same amount, converted by molar mass.

The source of these data is US20240270762A1, “PENICILLIN-BINDING PROTEIN INHIBITORS” (priority 2021, published 2024).

Assay [1] relates to B. thailandensis ATCC 700388. The assay is described as follows: microbe, parasite or virus in culture. It counts as cell-based. Conditions: Burkholderia thailandensis, ATCC700388, read-out: Minimum inhibitory concentration (MIC), B. thailandensis ATCC 700388.
The subject of a further assay is A. baumannii 1258916. Kind of assay: microbe, parasite or virus in culture. It is filed as cell-based, Acinetobacter baumannii. Particulars: Acinetobacter baumannii, 1258916, read-out: MIC, A. baumannii 1258916.
For assay [2], the target named is T1, PBP3 from Acinetobacter baumannii (ATCC 19606) (Acinetobacter baumannii, UniProt A0ABX6CK25).
T1 sequence (A0ABX6CK25 64-610): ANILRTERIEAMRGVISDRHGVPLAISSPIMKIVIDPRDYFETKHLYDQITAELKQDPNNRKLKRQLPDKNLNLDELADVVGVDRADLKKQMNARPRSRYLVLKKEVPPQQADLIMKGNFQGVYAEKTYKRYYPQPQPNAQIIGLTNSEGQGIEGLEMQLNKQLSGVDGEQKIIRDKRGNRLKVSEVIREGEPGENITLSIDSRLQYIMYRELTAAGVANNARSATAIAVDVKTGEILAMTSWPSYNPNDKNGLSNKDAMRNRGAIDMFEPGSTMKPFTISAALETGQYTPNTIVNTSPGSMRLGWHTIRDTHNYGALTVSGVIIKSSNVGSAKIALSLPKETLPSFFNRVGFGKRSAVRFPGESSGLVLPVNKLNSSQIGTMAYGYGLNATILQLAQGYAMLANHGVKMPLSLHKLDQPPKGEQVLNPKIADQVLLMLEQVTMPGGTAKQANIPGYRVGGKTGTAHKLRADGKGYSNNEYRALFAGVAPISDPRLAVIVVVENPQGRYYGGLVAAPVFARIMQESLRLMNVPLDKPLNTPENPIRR
The assay is described as follows: Bocillin-FL fluorescence polarization competition binding, A. baumannii PBP3. Conditions: fluorescence polarization competition binding assay using Bocillin-FL; read-out: A. baumannii PBP3 Potency. Put shortly: (§1)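 Purified PBP was preincubated with inhibitor (E. coli PBP3 1.5 μM, 30 min; P. aeruginosa PBP3 0.75 μM, A. baumannii PBP3 0.2 μM and PBP1a 1 μM, 15 min), then Bocillin-FL (0.1 μM; 0.05 μM for PBP1a) added and FP read up to 60 min. EC50 = 50% loss of bound probe.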
A general note: Fluorescence polarisation rises when a labelled molecule tumbles more slowly, as on binding a larger partner.

The test system of assay [3] is P. aeruginosa (ΔmexAB-oprM). Kind of assay: Broth microdilution MIC in iron-depleted CAMHB (IDM). It is filed as cell-based. Conditions: Pseudomonas aeruginosa; iron-depleted CAMHB (IDM); […]; read-out: Minimum inhibitory concentration, P. aeruginosa ΔmexAB-oprM. Background: Dilution methods test growth across graded concentrations, often in twofold steps.
In another assay the test system is A. baumannii ATCC 17978. The assay is described as follows: microbe, parasite or virus in culture. It counts as cell-based. Conditions: Acinetobacter baumannii, ATCC17978, read-out: MIC, A. baumannii ATCC 17978.
Assay [4] has as its target T2, PBP3 from Pseudomonas aeruginosa (PAO1) (Pseudomonas aeruginosa, UniProt G3XD46).
T2 construct: made in house
Kind of assay: Bocillin-FL fluorescence polarization competition binding, P. aeruginosa PBP3. Conditions: Binding affinity to P. aeruginosa PBP3; fluorescence polarization competition binding assay using Bocillin-FL; read-out: P. aeruginosa PBP3 Potency. Summed up: as §1

The next assay has as its system P. aeruginosa CDC-0054. Kind of assay: microbe, parasite or virus in culture. Conditions: Pseudomonas aeruginosa, CDC0054, read-out: Minimum inhibitory concentration, P. aeruginosa CDC-0054. It counts as cell-based.
For another assay, the system named is P. aeruginosa CDC-0095. The assay is described as follows: microbe, parasite or virus in culture. It is filed as cell-based. Particulars: Pseudomonas aeruginosa, CDC0095, read-out: Minimum inhibitory concentration, P. aeruginosa CDC-0095.
The next assay has as its system P. aeruginosa CDC-0090. Kind of assay: microbe, parasite or virus in culture. It is filed as cell-based. Particulars: Pseudomonas aeruginosa, CDC0090, read-out: Minimum inhibitory concentration, P. aeruginosa CDC-0090.
Another assay relates to P. aeruginosa CDC-0110. Kind of assay: microbe, parasite or virus in culture. It is filed as cell-based. Particulars: Pseudomonas aeruginosa, CDC0110, read-out: Minimum inhibitory concentration, P. aeruginosa CDC-0110.

T2 sequence (G3XD46 whole entry): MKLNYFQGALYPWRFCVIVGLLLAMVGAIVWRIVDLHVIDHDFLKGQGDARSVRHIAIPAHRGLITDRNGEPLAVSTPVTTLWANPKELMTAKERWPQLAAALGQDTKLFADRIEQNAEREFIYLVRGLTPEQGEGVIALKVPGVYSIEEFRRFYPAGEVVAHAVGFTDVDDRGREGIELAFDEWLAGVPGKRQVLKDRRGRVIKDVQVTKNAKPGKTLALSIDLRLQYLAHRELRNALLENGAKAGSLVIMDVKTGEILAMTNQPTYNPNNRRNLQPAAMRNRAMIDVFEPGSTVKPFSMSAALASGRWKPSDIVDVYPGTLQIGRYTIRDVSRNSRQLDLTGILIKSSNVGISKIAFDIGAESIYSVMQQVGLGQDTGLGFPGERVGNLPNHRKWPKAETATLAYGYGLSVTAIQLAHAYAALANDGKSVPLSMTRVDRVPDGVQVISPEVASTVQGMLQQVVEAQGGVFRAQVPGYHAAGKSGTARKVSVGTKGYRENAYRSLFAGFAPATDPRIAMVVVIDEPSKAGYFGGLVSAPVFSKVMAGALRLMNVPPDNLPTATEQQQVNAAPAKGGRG

Regarding `O=C(O)c1c(F)ccc2c1OB(O)[C@@H](NC(=O)[C@H](NC(=O)N1CCN(Cc3ccc(O)c(O)c3Cl)C(=O)C1=O)c1ccc(P(=O)(O)O)cc1)C2` (single isomer, unassigned) [Example 160], the MIC (in assay [1]; with A. baumannii 1258916; in [3]; in the assay on A. baumannii ATCC 17978; in the assay on P. aeruginosa CDC-0054; in the assay on P. aeruginosa CDC-0095) was under 1 µg/mL in each case. Moreover, the MIC with P. aeruginosa CDC-0090 and in the assay with P. aeruginosa CDC-0110 was under 1 µg/mL throughout. The pIC50 in assay [2] and in assay [4] was over 5.00 throughout.
Turning to `O=C(O)c1c(F)ccc2c1OB(O)[C@@H](NC(=O)[C@H](NC(=O)N1CCN(Cc3ccc(O)c(O)c3Cl)C(=O)C1=O)c1cccc(P(=O)(O)O)c1)C2` (single isomer, unassigned) [Example 163], the MIC (in assay [1]; in the assay with A. baumannii 1258916; in assay [3]; with A. baumannii ATCC 17978; in the assay with P. aeruginosa CDC-0054; with P. aeruginosa CDC-0095) was under 1 µg/mL each time. Besides, the MIC was 2 to 4 µg/mL (≈ 2.72 to 5.44 µM) with P. aeruginosa CDC-0090 and under 1 µg/mL with P. aeruginosa CDC-0110. Also, the pIC50 in assay [2] and in assay [4] was over 5.00 in each case.
`O=C(NCCS(=O)(=O)N1CCN(C(=O)N[C@@H](C(=O)N[C@H]2Cc3ccc(F)c(C(=O)O)c3OB2O)c2ccc(P(=O)(O)O)cc2)C1=O)c1ccc(O)c(O)c1Cl` (single isomer, unassigned) [Example 168]: the MIC in [1] was under 1 µg/mL; with A. baumannii 1258916, 2 to 4 µg/mL (≈ 2.42 to 4.83 µM); in [3] it was 8 to 16 µg/mL (≈ 9.66 to 19.3 µM); with A. baumannii ATCC 17978, under 1 µg/mL; with P. aeruginosa CDC-0054, 32 to 64 µg/mL (≈ 38.7 to 77.3 µM); in the assay on P. aeruginosa CDC-0095, 8 to 16 µg/mL (≈ 9.66 to 19.3 µM). In addition, the MIC with P. aeruginosa CDC-0090 and with P. aeruginosa CDC-0110 was 32 to 64 µg/mL (≈ 38.7 to 77.3 µM) each time. Also, the pIC50 in [2] and in assay [4] was over 5.00 each time.
For `O=C(NCCCS(=O)(=O)N1CCN(C(=O)N[C@H](C(=O)N[C@H]2Cc3ccc(F)c(C(=O)O)c3OB2O)c2ccc(P(=O)(O)O)cc2)C1=O)c1ccc(O)c(O)c1Cl` (single isomer, unassigned) [Example 169], the MIC (in assay [1]; in the assay with A. baumannii 1258916; in [3]; in the assay with A. baumannii ATCC 17978; in the assay on P. aeruginosa CDC-0054; in the assay on P. aeruginosa CDC-0095) was over 128 µg/mL throughout. Besides, the MIC in the assay on P. aeruginosa CDC-0090 and with P. aeruginosa CDC-0110 was over 128 µg/mL in each case. Moreover, the figures for the pIC50 in assay [2] and in assay [4] were 4.30 to 5.00 and under 3.60, respectively.
On to `O=C(O)c1c(F)ccc2c1OB(O)[C@@H](NC(=O)[C@H](NC(=O)N1CCN(C3CCN(C(=O)Nc4ccc(O)cc4)CC3)C(=O)C1=O)c1cc(F)c(O)c(O)c1Cl)C2` (single isomer, unassigned) [Example 426], for which the MIC in [1] is under 1 µg/mL; in the assay on A. baumannii 1258916, 2 to 4 µg/mL (≈ 2.5 to 4.99 µM); in [3], under 1 µg/mL; in the assay on A. baumannii ATCC 17978, under 1 µg/mL; in the assay with P. aeruginosa CDC-0054 it was under 1 µg/mL; in the assay with P. aeruginosa CDC-0095, 2 to 4 µg/mL (≈ 2.5 to 4.99 µM). Also, the MIC in the assay with P. aeruginosa CDC-0090 and in the assay on P. aeruginosa CDC-0110 was under 1 µg/mL each time. In addition, the pIC50 in assay [2] and in [4] was over 5.00 each time.
Turning to `O=C(O)c1c(F)ccc2c1OB(O)[C@@H](NC(=O)[C@H](NC(=O)N1CCN(C3CCN(C(=O)c4cccc(O)c4)CC3)C1=O)c1cc(F)c(O)c(O)c1Cl)C2` (single isomer, unassigned) [Example 430], the MIC in [1] is under 1 µg/mL; in the assay with A. baumannii 1258916, 8 to 16 µg/mL (≈ 10.6 to 21.1 µM); in assay [3], under 1 µg/mL; in the assay on A. baumannii ATCC 17978 it was under 1 µg/mL; in the assay on P. aeruginosa CDC-0054, under 1 µg/mL; in the assay with P. aeruginosa CDC-0095, under 1 µg/mL. The MIC in the assay with P. aeruginosa CDC-0090 and in the assay with P. aeruginosa CDC-0110 was under 1 µg/mL throughout. In addition, the pIC50 in assay [2] and in [4] was over 5.00 in each case.
On to `O=C(O)c1c(F)ccc2c1OB(O)[C@@H](NC(=O)[C@H](NC(=O)N1CCN(C3CCN(C(=O)c4cccc(O)c4F)CC3)C1=O)c1cc(F)c(O)c(O)c1Cl)C2` (single isomer, unassigned) [Example 431], for which the MIC (in [1]; in the assay with A. baumannii 1258916; in assay [3]; in the assay on A. baumannii ATCC 17978; in the assay on P. aeruginosa CDC-0054; with P. aeruginosa CDC-0095) was under 1 µg/mL in each case. In addition, the MIC in the assay with P. aeruginosa CDC-0090 and with P. aeruginosa CDC-0110 was under 1 µg/mL each time. In addition, the pIC50 in [2] and in assay [4] was over 5.00 each time.
For the compound `O=C(O)c1c(F)ccc2c1OB(O)[C@@H](NC(=O)[C@H](NC(=O)N1CCN(C3CCN(C(=O)c4cccc(O)c4Cl)CC3)C1=O)c1cc(F)c(O)c(O)c1Cl)C2` (single isomer, unassigned) [Example 432], the MIC (in [1]; in the assay on A. baumannii 1258916; in assay [3]; in the assay with A. baumannii ATCC 17978; in the assay with P. aeruginosa CDC-0054; in the assay on P. aeruginosa CDC-0095) was under 1 µg/mL each time. In addition, the MIC in the assay on P. aeruginosa CDC-0090 and with P. aeruginosa CDC-0110 was under 1 µg/mL in each case. Further, the pIC50 in [2] and in assay [4] was over 5.00 in each case.
For the compound `O=C(O)c1c(F)ccc2c1OB(O)[C@@H](NC(=O)[C@H](NC(=O)N1CCN(C3CCN(C(=O)c4cc(O)ccc4F)CC3)C1=O)c1cc(F)c(O)c(O)c1Cl)C2` (single isomer, unassigned) [Example 433], the MIC (in [1]; with A. baumannii 1258916; in [3]; in the assay on A. baumannii ATCC 17978; with P. aeruginosa CDC-0054; with P. aeruginosa CDC-0095) was under 1 µg/mL throughout. Moreover, the MIC with P. aeruginosa CDC-0090 and in the assay on P. aeruginosa CDC-0110 was under 1 µg/mL in each case. In addition, the pIC50 in [2] and in assay [4] was over 5.00 in each case.
Take `O=C(O)c1c(F)ccc2c1OB(O)[C@@H](NC(=O)[C@H](NC(=O)N1CCN(C3CCN(C(=O)c4cc(O)ccc4Cl)CC3)C1=O)c1cc(F)c(O)c(O)c1Cl)C2` (single isomer, unassigned) [Example 434]: the MIC (in assay [1]; with A. baumannii 1258916; in assay [3]; in the assay on A. baumannii ATCC 17978; with P. aeruginosa CDC-0054; in the assay on P. aeruginosa CDC-0095) was under 1 µg/mL each time. For the same compound, the MIC in the assay with P. aeruginosa CDC-0090 and with P. aeruginosa CDC-0110 was under 1 µg/mL throughout. The pIC50 in assay [2] and in assay [4] was over 5.00 throughout.
On to `O=C(O)c1c(F)ccc2c1OB(O)[C@@H](NC(=O)C(NC(=O)N1CCN(C3CCN(C(=O)Nc4ccc(F)c(O)c4F)CC3)C1=O)c1cc(F)c(O)c(O)c1Cl)C2` (stereo partly drawn) [Example 452, (3R)-3-(2-(2-chloro-5-fluoro-3,4-dihydroxyphenyl)-2-(3-(1-((2,4-difluoro-3-hydroxyphenyl)carbamoyl)piperidin-4-yl)-2-oxoimidazolidine-1-carboxamido)acetamido)-7-fluoro-2-hydroxy-3,4-dihydro-2H-benzo[e][1,2]oxaborinine-8-carboxylic acid], for which the MIC was under 1 µg/mL with A. baumannii 1258916; under 1 µg/mL in assay [3]; under 1 µg/mL in the assay with A. baumannii ATCC 17978; under 1 µg/mL in the assay on P. aeruginosa CDC-0054; 2 to 4 µg/mL (≈ 2.47 to 4.95 µM) in the assay with P. aeruginosa CDC-0095; under 1 µg/mL with P. aeruginosa CDC-0090. Moreover, the MIC with P. aeruginosa CDC-0110 was under 1 µg/mL. Also, the pIC50 in [2] and in [4] was over 5.00 each time.
